In ChEMBL document CHEMBL1649419, “Design and synthesis of pyrimidinone and pyrimidinedione inhibitors of dipeptidyl peptidase IV” (J Med Chem, 2011):
Blank lines part the entries; values can stand above or below the molecule they belong to.

Legend:
[1] = Half life in rat liver microsomes by LC/MS analysis; assay type: ADME, Microsome
[2] = Half life in human liver microsomes by LC/MS analysis; assay type: ADME, Microsome
[3] = Half life in monkey at 2.1 mg/kg, po; assay type: ADME, organism-based, Macaca mulatta; set-up: dose 2.1 mg/kg, route oral; settings: rhesus monkey, in vivo
[4] = AUC in monkey at 2.1 mg/kg, po; assay type: ADME, organism-based, Macaca mulatta; set-up: dose 2.1 mg/kg, route oral; settings: rhesus monkey, plasma
[5] = Volume of distribution at steady state in monkey at 1.6 mg/kg, iv and 2.1 mg/kg, po; assay type: ADME, organism-based, Macaca mulatta; settings: rhesus monkey, in vivo, read-out: Vdss
[6] = Half life in monkey at 1.6 mg/kg, iv; assay type: ADME, organism-based, Macaca mulatta; set-up: dose 1.6 mg/kg, route intravenous; settings: rhesus monkey, in vivo
[7] = Oral bioavailability in monkey at 2.1 mg/kg; assay type: ADME, organism-based, Macaca mulatta; settings: rhesus monkey, in vivo
[8] = Half life in rat at 0.71 mg/kg, iv; assay type: ADME, organism-based; set-up: dose 0.71 mg/kg, route intravenous; settings: in vivo
[9] = Oral bioavailability in rat at 14 mg/kg; assay type: ADME, organism-based; settings: in vivo
[10] = Volume of distribution at steady state in rat at 0.71 mg/kg, iv and 14 mg/kg, po; assay type: ADME, organism-based; settings: in vivo, read-out: Vdss
[11] = AUC in rat at 14 mg/kg, po; assay type: ADME, organism-based; set-up: dose 14 mg/kg, route oral; settings: plasma
[12] = Half life in rat at 14 mg/kg, po; assay type: ADME, organism-based; set-up: dose 14 mg/kg, route oral; settings: in vivo
[13] = Half life in dog at 3 mg/kg, po; assay type: ADME, organism-based, Canis lupus familiaris; set-up: dose 3 mg/kg, route oral; settings: in vivo
[14] = Oral bioavailability in rat at 10 mg/kg; assay type: ADME, organism-based; settings: in vivo
[15] = Volume of distribution at steady state in rat at 2 mg/kg, iv and 10 mg/kg, po; assay type: ADME, organism-based; settings: in vivo, read-out: Vdss
[16] = Half life in rat at 2 mg/kg, iv; assay type: ADME, organism-based; set-up: dose 2 mg/kg, route intravenous; settings: in vivo
[17] = Volume of distribution at steady state in dog at 1 mg/kg, iv and 3 mg/kg, po; assay type: ADME, organism-based, Canis lupus familiaris; settings: in vivo, read-out: Vdss
[18] = Half life in dog at 1 mg/kg, iv; assay type: ADME, organism-based, Canis lupus familiaris; set-up: dose 1 mg/kg, route intravenous; settings: in vivo
[19] = Oral bioavailability in dog at 3 mg/kg; assay type: ADME, organism-based, Canis lupus familiaris; settings: in vivo
[20] = AUC in rat at 10 mg/kg, po; assay type: ADME, organism-based; set-up: dose 10 mg/kg, route oral; settings: plasma
[21] = Half life in rat at 10 mg/kg, po; assay type: ADME, organism-based; set-up: dose 10 mg/kg, route oral; settings: in vivo
[22] = AUC in dog at 3 mg/kg, po; assay type: ADME, organism-based, Canis lupus familiaris; set-up: dose 3 mg/kg, route oral; settings: plasma
[23] = Half life in rat at 0.8 mg/kg, iv; assay type: ADME, organism-based; set-up: dose 0.8 mg/kg, route intravenous; settings: in vivo
[24] = Oral bioavailability in rat at 11 mg/kg; assay type: ADME, organism-based; settings: in vivo
[25] = Oral bioavailability in dog at 2.5 mg/kg; assay type: ADME, organism-based, Canis lupus familiaris; settings: in vivo
[26] = Volume of distribution at steady state in dog at 0.8 mg/kg, iv and 2.5 mg/kg, po; assay type: ADME, organism-based, Canis lupus familiaris; settings: in vivo, read-out: Vdss
[27] = Half life in rat at 11 mg/kg, po; assay type: ADME, organism-based; set-up: dose 11 mg/kg, route oral; settings: in vivo
[28] = AUC in dog at 2.5 mg/kg, po; assay type: ADME, organism-based, Canis lupus familiaris; set-up: dose 2.5 mg/kg, route oral; settings: plasma
[29] = Half life in dog at 0.8 mg/kg, iv; assay type: ADME, organism-based, Canis lupus familiaris; set-up: dose 0.8 mg/kg, route intravenous; settings: in vivo
[30] = AUC in rat at 11 mg/kg, po; assay type: ADME, organism-based; set-up: dose 11 mg/kg, route oral; settings: plasma
[31] = Volume of distribution at steady state in rat at 0.8 mg/kg, iv and 11 mg/kg, po; assay type: ADME, organism-based; settings: in vivo, read-out: Vdss
[32] = Half life in dog at 2.5 mg/kg, po; assay type: ADME, organism-based, Canis lupus familiaris; set-up: dose 2.5 mg/kg, route oral; settings: in vivo
[33] = Half life in dog at 2.7 mg/kg, po; assay type: ADME, organism-based, Canis lupus familiaris; set-up: dose 2.7 mg/kg, route oral; settings: in vivo
[34] = Volume of distribution at steady state in dog at 0.90 mg/kg, iv and 2.7 mg/kg, po; assay type: ADME, organism-based, Canis lupus familiaris; settings: in vivo, 0.9 mg/kg, read-out: Vdss
[35] = tested on: Macaca fascicularis; assay: Half life in monkey at 0.93 mg/kg, iv; settings: cynomolgus monkey, in vivo
[36] = Oral bioavailability in dog at 2.7 mg/kg, po; assay type: ADME, organism-based, Canis lupus familiaris; settings: in vivo
[37] = AUC in dog at 2.7 mg/kg, po; assay type: ADME, organism-based, Canis lupus familiaris; set-up: dose 2.7 mg/kg, route oral; settings: plasma
[38] = Half life in dog at 0.90 mg/kg, iv; assay type: ADME, organism-based, Canis lupus familiaris; set-up: dose 0.9 mg/kg, route intravenous; settings: in vivo, 0.9 mg/kg
[39] = Clearance in dog at 0.90 mg/kg, iv and 2.7 mg/kg, po; assay type: ADME, organism-based, Canis lupus familiaris; settings: in vivo, 0.9 mg/kg
[40] = tested on: Macaca fascicularis; assay: Volume of distribution at steady state in monkey at 0.93 mg/kg, iv and 4.6 mg/kg, po; settings: cynomolgus monkey, in vivo, read-out: Vdss
[41] = tested on: Macaca fascicularis; assay: Oral bioavailability in monkey at 4.6 mg/kg, po; settings: cynomolgus monkey, in vivo
[42] = tested on: Macaca fascicularis; assay: Half life in monkey at 4.6 mg/kg, po; settings: cynomolgus monkey, in vivo
[43] = AUC in monkey at 4.6 mg/kg, po; settings: cynomolgus monkey, plasma
[44] = tested on: Macaca fascicularis; assay: in vivo; settings: cynomolgus monkey, iv, 0.93 mg/kg
[45] = Half life in dog at 0.52 mg/kg, iv; assay type: ADME, organism-based, Canis lupus familiaris; set-up: dose 0.52 mg/kg, route intravenous; settings: in vivo
[46] = AUC in dog at 1.8 mg/kg, po; assay type: ADME, organism-based, Canis lupus familiaris; set-up: dose 1.8 mg/kg, route oral; settings: plasma
[47] = Volume of distribution at steady state in rat at 1.4 mg/kg, iv and 14 mg/kg, po; assay type: ADME, organism-based; settings: in vivo, read-out: Vdss
[48] = Oral bioavailability in dog at 1.8 mg/kg; assay type: ADME, organism-based, Canis lupus familiaris; settings: in vivo
[49] = Half life in dog at 1.8 mg/kg, po; assay type: ADME, organism-based, Canis lupus familiaris; set-up: dose 1.8 mg/kg, route oral; settings: in vivo
[50] = Volume of distribution at steady state in dog at 0.52 mg/kg, iv and 1.8 mg/kg, po; assay type: ADME, organism-based, Canis lupus familiaris; settings: in vivo, read-out: Vdss
[51] = Half life in rat at 1.4 mg/kg, iv; assay type: ADME, organism-based; set-up: dose 1.4 mg/kg, route intravenous; settings: in vivo

half-life [1]: 3.32 h
half-life [2]: > 3.33 h
SMILES: N#Cc1ccccc1Cn1c(N2CCC[C@@H](N)C2)ncc(Cl)c1=O

half-life [3]: 5.7 h
AUC [4]: 3100 ng·h/mL
Vd [5]: 3.2 L/kg
half-life [6]: 4 h
bioavailability [7]: 110%
SMILES: N#Cc1ccccc1Cn1c(N2CCC[C@@H](N)C2)ncc(F)c1=O.O=C(O)C(O)C(O)C(=O)O [TARTARATE]

half-life [1]: 2.03 h
half-life [2]: > 3.33 h
SMILES: N#Cc1ccc(F)cc1Cn1c(N2CCC[C@@H](N)C2)ncc(Cl)c1=O

half-life [1]: 0.0667 h
half-life [2]: 0.933 h
SMILES: N#Cc1ccccc1Cn1c(N2CCC[C@@H](N)C2)ncc(-c2ccoc2)c1=O

half-life [1]: 0.0167 h
half-life [2]: 1.17 h
SMILES: N#Cc1ccccc1Cn1c(N2CCC[C@@H](N)C2)ncc(-c2ccccc2)c1=O

half-life [1]: 0.567 h
half-life [2]: > 3.33 h
SMILES: N#Cc1ccccc1Cn1c(N2CCC[C@@H](N)C2)ncc(/C=C/c2ccccc2)c1=O

half-life [1]: 0.1 h
half-life [2]: 2.73 h
SMILES: C=Cc1cnc(N2CCC[C@@H](N)C2)n(Cc2ccccc2C#N)c1=O

half-life [1]: 2.18 h
half-life [2]: > 3.33 h
SMILES: N#Cc1ccccc1Cn1c(N2CCC[C@@H](N)C2)nccc1=O

half-life [1]: 0.383 h
half-life [2]: > 3.33 h
SMILES: Cc1nc(N2CCC[C@@H](N)C2)n(Cc2ccccc2C#N)c(=O)c1Br

half-life [1]: > 3.33 h
half-life [2]: > 3.33 h
SMILES: N#Cc1ccccc1Cn1c(N2CCC[C@@H](N)C2)ncc(F)c1=O

half-life [8]: 1.5 h
bioavailability [9]: 73%
Vd [10]: 4.2 L/kg
AUC [11]: 3800 ng·h/mL
half-life [12]: 1.5 h
SMILES: N#Cc1ccccc1Cn1c(N2CCC[C@@H](N)C2)ncc(F)c1=O.O=C(O)C(F)(F)F

half-life [1]: 0.883 h
half-life [2]: > 3.33 h
SMILES: Cn1c(=O)cc(N2CCC[C@@H](N)C2)n(Cc2cc(F)ccc2Cl)c1=O

half-life [13]: 6.1 h
bioavailability [14]: 74%
Vd [15]: 3.2 L/kg
half-life [16]: 1.1 h
Vd [17]: 1.7 L/kg
half-life [18]: 5.3 h
bioavailability [19]: 105%
AUC [20]: 2400 ng·h/mL
half-life [21]: 1.7 h
AUC [22]: 14700 ng·h/mL
SMILES: Cl.N#Cc1ccccc1Cn1c(N2CCC[C@@H](N)C2)ncc(Br)c1=O

half-life [1]: > 3.33 h
half-life [2]: > 3.33 h
SMILES: Cn1c(=O)cc(N2CCC[C@@H](N)C2)n(Cc2cc(F)ccc2C#N)c1=O [TRELAGLIPTIN]

half-life [1]: > 3.33 h
half-life [2]: > 3.33 h
SMILES: N#Cc1ccccc1Cn1c(N2CCC[C@@H](N)C2)ncc(C#CCO)c1=O

half-life [1]: 0.25 h
half-life [2]: > 3.33 h
SMILES: N#Cc1ccsc1Cn1c(N2CCC[C@@H](N)C2)ncc(Br)c1=O

half-life [23]: 1.3 h
bioavailability [24]: 65%
bioavailability [25]: 90%
Vd [26]: 1.9 L/kg
half-life [27]: 1.3 h
AUC [28]: 8400 ng·h/mL
half-life [29]: 5.2 h
AUC [30]: 2800 ng·h/mL
Vd [31]: 3 L/kg
half-life [32]: 4.8 h
SMILES: Cl.N#Cc1ccccc1Cn1c(N2CCC[C@@H](N)C2)ncc(Cl)c1=O

half-life [1]: 0.267 h
half-life [2]: 1.5 h
SMILES: Cn1c(=O)cc(N2CCC[C@@H](N)C2)n(Cc2cc(F)ccc2Br)c1=O

half-life [1]: 1.12 h
half-life [2]: > 3.33 h
SMILES: Cn1c(=O)cc(N2CCC[C@@H](N)C2)n(Cc2ccc(F)cc2Cl)c1=O

half-life [1]: > 3.33 h
half-life [2]: 3.1 h
SMILES: N#Cc1ccccc1Cn1c(N2CCC[C@@H](N)C2)ncc(/C=C/c2ccc(F)cc2)c1=O

half-life [33]: 4.8 h
Vd [34]: 4.4 L/kg
half-life [35]: 5.6 h
bioavailability [36]: 90%
AUC [37]: 2200 ng·h/mL
half-life [38]: 1.5 h
clearance [39]: 18 mL/min/kg
SMILES: Cn1c(=O)cc(N2CCC[C@@H](N)C2)n(Cc2cc(F)ccc2C#N)c1=O.O=C(O)C(F)(F)F

Vd [40]: 3.3 L/kg
bioavailability [41]: 105%
half-life [42]: 6.2 h
AUC [43]: 8000 ng·h/mL
clearance [44]: 10 mL/min/kg
SMILES: Cl.Cn1c(=O)cc(N2CCC[C@@H](N)C2)n(Cc2cc(F)ccc2C#N)c1=O

half-life [45]: 2.4 h
AUC [46]: 1400 ng·h/mL
bioavailability [9]: 54%
Vd [47]: 4.8 L/kg
bioavailability [48]: 78%
half-life [49]: 2.8 h
AUC [11]: 1200 ng·h/mL
half-life [12]: 1 h
Vd [50]: 3 L/kg
half-life [51]: 0.74 h
SMILES: N#Cc1ccccc1Cn1c(N2CCC[C@@H](N)C2)nccc1=O.O=C(O)C(F)(F)F
